Laboratory results: patent US20190002942A1, “ANTIBIOTIC FIIRV 104/18 COMPLEX AND THE ISOLATED INDIVIDUAL FACTORS THEREOF” (Fondazione Istituto Insubrico di Ricerca per la Vita, priority 2015, published 2019)
Values after ≈ are worked out from the molar mass of the structure shown. Where two headings read alike, the source gives them in different places. Each block holds one compound with its values, some of them ahead of it.

What was measured:
[1] = system: L819 S. aureus Smith ATCC19636; assay: MIC, broth microdilution (CLSI); type: cell-based, Staphylococcus aureus
Method: (§1) Inocula are: 2-5×10^5 CFU/mL for Gram positive and Gram negative bacteria; 10^4 CFU/mL for Candida albicans.
(§2) The effect of 30% bovine serum is determined under the same experimental conditions.
(§3) Cultures are incubated at 35° C. in air. After 18-24 hours visual readings are performed and MICs determined. The MIC (Minimal Inhibitory Concentration) is defined as the lower concentration of antibiotic at which there is no visible growth. The strains used are clinical isolates or strains from American Type Culture Collection (ATCC).

[2] = system: L560 E. faecalis VanA; assay: MIC, broth microdilution (CLSI); type: cell-based, Enterococcus faecalis
Method: as §1, §2, §3

[3] = system: L569 E. faecium VanA; assay: MIC, broth microdilution (CLSI); type: cell-based, Enterococcus faecium
Method: as §1, §2, §3

[4] = system: L559 E. faecalis; assay: MIC, broth microdilution (CLSI); type: cell-based; conditions: Enterococcus faecalis
Method: as §1, §2, §3

[5] = system: L49 S. pyogenes C203; assay: MIC, broth microdilution (CLSI); type: cell-based; conditions: Streptococcus pyogenes
Method: as §1, §2, §3

[6] = system: L1730 S. haemolyticus; assay: MIC, broth microdilution (CLSI); type: cell-based; conditions: Staphylococcus haemolyticus
Method: as §1, §2, §3

[7] = system: L1577 S. epidermidis; assay: MIC, broth microdilution (CLSI); type: cell-based; conditions: Staphylococcus epidermidis
Method: as §1, §2, §3

[8] = system: L1400 S. aureus MRSA; assay: MIC, broth microdilution (CLSI); type: cell-based; conditions: Staphylococcus aureus
Method: as §1, §2, §3

[9] = system: L44 S. pneumoniae; assay: MIC, broth microdilution (CLSI); type: cell-based; conditions: Streptococcus pneumoniae
Method: as §1, §2, §3

[10] = system: L100 S. aureus ATCC 6538; assay: MIC, broth microdilution (CLSI); type: cell-based; conditions: Staphylococcus aureus, ATCC6538
Method: as §1, §2, §3

[11] = system: L47 E. coli, SKF 12140; assay: MIC, broth microdilution (CLSI); type: cell-based; conditions: Escherichia coli
Method: as §1, §2, §3

[12] = system: L1729 S. haemolyticus MDR; assay: MIC, broth microdilution (CLSI); type: cell-based; conditions: Staphylococcus haemolyticus
Method: as §1, §2, §3

[13] = system: L568 E. faecium; assay: MIC, broth microdilution (CLSI); type: cell-based; conditions: Enterococcus faecium
Method: as §1, §2, §3

[14] = system: L3294 M. catarrhalis; assay: MIC, broth microdilution (CLSI); type: cell-based; conditions: Moraxella catarrhalis
Method: as §1, §2, §3

[15] = system: Staphylococcus aureus Smith ATCC 19636; assay: Murine Staphylococcus aureus infection model; type: in vivo, ICR mice
Method: Female ICR mice (Harlan, Italy) weighing 21-24 g are infected intraperitoneally (ip) with 5×10^4 cells of Staphylococcus aureus Smith ATCC 19636 in 0.5 mL of 5% gastric mucine. Antibiotic FIIRV 104/18 factor F795 is administered intravenously (iv) within 10-15 min after infection. […] In: Statistical Methods in Biological Assay, 524-530, (1952) Charles Griffin &Co., Ltd., London].

[16] = system: L2048 B. cenocepacia; assay: MIC, broth microdilution (CLSI); type: cell-based; conditions: Burkholderia cenocepacia; L2048 B. cenocepacia; read-out: MIC
Method: (§4) Antimicrobial activity of the antibiotic FIIRV 104/18 complex is determined by the broth microdilution method according to the procedures published by the Clinical and Laboratory Standards Institute (CLSI), formerly the National Committee for Clinical Laboratory Standards (NCCLS) (document M07-A9). Inocula are: 2-5×10^5 CFU/mL for Gram positive and Gram negative bacteria; 10^4 CFU/mL for Candida albicans.
(§5) The media used are: cation adjusted Mueller Hinton broth (CAMHB) for Staphylococci, Enterococci, Moraxella catarrhalis, Escherichia coli; Todd Hewitt broth (THB) for Streptococci; RPMI 1640 Medium for C. albicans. The effect of 30% bovine serum is determined under the same experimental conditions.
as §3, with “(ATCC). Individual factors of antibiotic FIIRV 104/18 are dissolved in DMSO to obtain a 1000 μg/mL stock solution, and subsequently diluted in water to obtain working solution.” for “(ATCC).”

[17] = system: L3030 A. baumannii; assay: MIC, broth microdilution (CLSI); type: cell-based; conditions: Acinetobacter baumannii; L3030 A. baumannii; read-out: MIC
Method: as §1, §2, §3

[18] = system: Gram-positive susceptible, resistant and multi-resistant pathogenic bacteria; assay: Growth inhibition of Gram-positive bacteria (summary); type: cell-based; conditions: Gram positive bacteria: Staphylococci incl. MRSA and MR coagulase-negative, Streptococci, Enterococci incl. VanA
Method: as §4, §5
as §3, with “(ATCC). Individual factors of antibiotic FIIRV 104/18 are dissolved in DMSO to obtain a 1000 μg/mL stock solution, and subsequently diluted in water to obtain working solution.” for “(ATCC).”

[19] = system: L145 C. albicans; assay: MIC, broth microdilution (CLSI); type: cell-based, Candida albicans; conditions: Candida albicans; L145 C. albicans; RPMI; inoculum 10^4 CFU/mL; read-out: MIC
Method: as §4, §5
as §3, with “(ATCC). Individual factors of antibiotic FIIRV 104/18 are dissolved in DMSO to obtain a 1000 μg/mL stock solution, and subsequently diluted in water to obtain working solution.” for “(ATCC).”

Structure (SMILES): CN[C@H](CC(C)C)C(=O)N[C@H]1C(=O)N[C@@H](CC(N)=O)C(=O)N[C@H]2C(=O)N[C@H]3C(=O)N[C@H](C(=O)N[C@H](C(=O)O)c4cc(O)cc(O)c4-c4cc3ccc4O)[C@H](O)c3ccc(c(Cl)c3)Oc3cc2cc(c3O[C@@H]2O[C@H](CO)[C@@H](O)[C@H](O)[C@H]2O[C@H]2C[C@](C)(N)[C@H](O)[C@H](C)O2)Oc2ccc(cc2Cl)[C@H]1O [V, vancomycin, reference compound]
MIC ([1]; L819 S. aureus Smith, +30% SB (bovine serum)): 1 µg/mL (≈ 0.69 µM)
MIC ([1]; Staphylococcus aureus, ATCC19636): 1 µg/mL (≈ 0.69 µM)
MIC ([2]; Enterococcus faecalis): > 128 µg/mL
MIC ([2]; L560 E. faecalis VanA, +30% SB (bovine serum)): >128 µg/mL
MIC ([3]; Enterococcus faecium): > 128 µg/mL
MIC ([3]; L569 E. faecium VanA, +30% SB (bovine serum)): >128 µg/mL
MIC [4]: 1 µg/mL (≈ 0.69 µM)
MIC [5]: 0.5 µg/mL (≈ 0.345 µM)
MIC [6]: 2 µg/mL (≈ 1.38 µM)
MIC [7]: 2 µg/mL (≈ 1.38 µM)
MIC ([8]; MRSA): 1 µg/mL (≈ 0.69 µM)
MIC [9]: 0.5 µg/mL (≈ 0.345 µM)
MIC [10]: 1 µg/mL (≈ 0.69 µM)
MIC [11]: > 2 µg/mL
MIC [12]: 2 µg/mL (≈ 1.38 µM)
MIC [13]: 2 µg/mL (≈ 1.38 µM)
MIC [14]: > 2 µg/mL
ED50 ([15]; ATCC19636, read-out: ED50 (50% effective dose)): 0.93 mg/kg

MIC ([1]; Staphylococcus aureus, ATCC19636, L819 S. aureus Smith ATCC19636, CAMHB, read-out: MIC): 0.002 µg/mL (≈ 0.00251 µM)
MIC ([1]; Staphylococcus aureus, ATCC19636, L819 S. aureus Smith, +30% SB (bovine serum), read-out: MIC): 0.125 µg/mL (≈ 0.157 µM)
MIC ([2]; Enterococcus faecalis, L560 E. faecalis VanA, +30% SB (bovine serum), read-out: MIC): 0.5 µg/mL (≈ 0.628 µM)
MIC ([2]; Enterococcus faecalis, L560 E. faecalis VanA, CAMHB, read-out: MIC): 0.125 µg/mL (≈ 0.157 µM)
MIC [16]: 32 µg/mL (≈ 40.2 µM)
MIC ([3]; Enterococcus faecium, L569 E. faecium VanA, +30% SB (bovine serum), read-out: MIC): 2 µg/mL (≈ 2.51 µM)
MIC ([3]; Enterococcus faecium, L569 E. faecium VanA, CAMHB, read-out: MIC): 0.25 µg/mL (≈ 0.314 µM)
MIC ([4]; L559 E. faecalis, CAMHB, read-out: MIC): 0.25 µg/mL (≈ 0.314 µM)
MIC ([5]; L49 S. pyogenes C203, THB, read-out: MIC): 0.015 µg/mL (≈ 0.0189 µM)
MIC ([7]; L1577 S. epidermidis, CAMHB, read-out: MIC): 0.015 µg/mL (≈ 0.0189 µM)
MIC ([8]; L1400 S. aureus MRSA, CAMHB, read-out: MIC): 0.015 µg/mL (≈ 0.0189 µM)
MIC ([9]; L44 S. pneumoniae, THB, read-out: MIC): 0.015 µg/mL (≈ 0.0189 µM)
MIC ([10]; L100 S. aureus ATCC 6538, CAMHB, read-out: MIC): 0.008 µg/mL (≈ 0.0101 µM)
MIC ([11]; L47 E. coli, SKF 12140, CAMHB, read-out: MIC): > 128 µg/mL
MIC ([13]; L568 E. faecium, CAMHB, read-out: MIC): 0.25 µg/mL (≈ 0.314 µM)
MIC ([14]; L3294 M. catarrhalis, CAMHB, read-out: MIC): 0.125 µg/mL (≈ 0.157 µM)
MIC [17]: 16 µg/mL (≈ 20.1 µM)
MIC [19]: > 128 µg/mL
Structure (SMILES): COC(=O)c1c(C)cc2c(c1O)[C@]1(O)C(=O)c3cc4c(c(O)c3C(=O)[C@]1(OC)[C@H](O)C2)C(=O)C=C(N[C@H]1O[C@@H](C)[C@H](O[C@@H]2CCC(=O)[C@H](C)O2)[C@@H](O)[C@H]1OC)C4=O [F795, (6R,6aS,14aR)-methyl 11-[(2S,3R,4R,5R,6S)-4-hydroxy-3-methoxy-6-methyl-5-{[(2S,6S)-6-methyl-5-oxotetrahydro-2H-pyran-2-yl]oxy}tetrahydro-2H-pyran-2-ylamino]-1,6,8,14a-tetrahydroxy-6a-methoxy-3-methyl-7,9,12,14-tetraoxo-5,6,6a,7,9,12,14,14a-octahydrobenzo[a]tetracene-2-carboxylate]
MIC ([6]; L1730 S. haemolyticus, CAMHB, read-out: MIC): 0.015 µg/mL (≈ 0.0189 µM)
MIC ([12]; L1729 S. haemolyticus MDR, CAMHB, read-out: MIC): 0.015 µg/mL (≈ 0.0189 µM)
antibacterial activity (in words) [18]: very high antibacterial activity
ED50 ([15]; ATCC19636, read-out: ED50 (50% effective dose), mice infected ip with S. aureus Smith ATCC 19636, iv within 10-15 min after infection, Spearman-Karber): 0.8 mg/kg
